Strand notation (5' to 3'): a small letter for the sugar, then the base; units joined by * are phosphorothioate-linked, units joined directly phosphodiester-linked; [ ] holds rarer units or linkages, { } end groups; capitals alone tell only the bases. e = 2'-O-(2-methoxyethyl) (MOE); [5mC] = 5-methylcytosine; d = 2'-deoxy (DNA)
System: human PKK mRNA
Test: Antisense inhibition of human PKK mRNA in HepaRG cells, 5,000 nM (Example 2)
Type: cell-based
Conditions: HepaRG cells, electroporation with 5,000 nM antisense oligonucleotide, approximately 24 hours, PKK mRNA by RT-PCR (RTS3454), relative to untreated control cells
Summary of the method: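 Chimeric MOE gapmers with full phosphorothioate backbones were tested once at 5,000 nM in electroporated HepaRG cells. After about 24 hours, quantitative PCR measured PKK mRNA relative to untreated control cells.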

Substance | % inhibition (Table 5 experiment) [%] | % inhibition (Table 6 experiment) [%]
547312 (antisense eA*eT*eG*eT*eA*d[5mC]*dT*dT*dT*dT*dG*dG*d[5mC]*dA*dG*eG*eG*eT*eT*e[5mC]) [compound 547312] | 46 | 
547313 (antisense eG*eT*eT*e[5mC]*eG*dA*dT*dG*dT*dA*d[5mC]*dT*dT*dT*dT*eG*eG*e[5mC]*eA*eG) [compound 547313] | 73 | 
547314 (antisense eG*e[5mC]*eA*e[5mC]*e[5mC]*dT*dG*dT*dT*d[5mC]*dG*dA*dT*dG*dT*eA*e[5mC]*eT*eT*eT) [compound 547314] |  | 73
547315 (antisense eA*eA*e[5mC]*eT*eG*d[5mC]*dA*d[5mC]*d[5mC]*dT*dG*dT*dT*d[5mC]*dG*eA*eT*eG*eT*eA) [compound 547315] |  | 50
547316 (antisense eG*eA*eA*eA*e[5mC]*dT*dG*d[5mC]*dA*d[5mC]*d[5mC]*dT*dG*dT*dT*e[5mC]*eG*eA*eT*eG) [compound 547316] |  | 75
547317 (antisense e[5mC]*eA*eG*eA*eA*dA*d[5mC]*dT*dG*d[5mC]*dA*d[5mC]*d[5mC]*dT*dG*eT*eT*e[5mC]*eG*eA) [compound 547317] |  | 75
547318 (antisense e[5mC]*e[5mC]*eA*eG*eA*dA*dA*d[5mC]*dT*dG*d[5mC]*dA*d[5mC]*d[5mC]*dT*eG*eT*eT*e[5mC]*eG) [compound 547318] |  | 74
547319 (antisense eG*eA*eA*eT*eG*dT*d[5mC]*d[5mC]*dA*dG*dA*dA*dA*d[5mC]*dT*eG*e[5mC]*eA*e[5mC]*e[5mC]) [compound 547319] |  | 62
547320 (antisense eA*eG*eG*eA*eA*dT*dG*dT*d[5mC]*d[5mC]*dA*dG*dA*dA*dA*e[5mC]*eT*eG*e[5mC]*eA) [compound 547320] |  | 73
547321 (antisense eT*e[5mC]*eA*eA*eG*dG*dA*dA*dT*dG*dT*d[5mC]*d[5mC]*dA*dG*eA*eA*eA*e[5mC]*eT) [compound 547321] |  | 53
547322 (antisense e[5mC]*eT*eT*e[5mC]*eA*dA*dG*dG*dA*dA*dT*dG*dT*d[5mC]*d[5mC]*eA*eG*eA*eA*eA) [compound 547322] |  | 65
547323 (antisense eT*eT*eG*e[5mC]*eT*dT*d[5mC]*dA*dA*dG*dG*dA*dA*dT*dG*eT*e[5mC]*e[5mC]*eA*eG) [compound 547323] |  | 56
547324 (antisense e[5mC]*eA*eT*eT*eG*d[5mC]*dT*dT*d[5mC]*dA*dA*dG*dG*dA*dA*eT*eG*eT*e[5mC]*e[5mC]) [compound 547324] |  | 76
547325 (antisense eG*eA*e[5mC]*e[5mC]*eA*d[5mC]*dA*dT*dT*dG*d[5mC]*dT*dT*d[5mC]*dA*eA*eG*eG*eA*eA) [compound 547325] |  | 67
547326 (antisense eA*eT*eG*eA*e[5mC]*d[5mC]*dA*d[5mC]*dA*dT*dT*dG*d[5mC]*dT*dT*e[5mC]*eA*eA*eG*eG) [compound 547326] |  | 48
547327 (antisense eT*eT*eG*eA*eT*dG*dA*d[5mC]*d[5mC]*dA*d[5mC]*dA*dT*dT*dG*e[5mC]*eT*eT*e[5mC]*eA) [compound 547327] |  | 45
547328 (antisense eA*eT*eT*eT*eG*dA*dT*dG*dA*d[5mC]*d[5mC]*dA*d[5mC]*dA*dT*eT*eG*e[5mC]*eT*eT) [compound 547328] |  | 40
547329 (antisense eT*eT*eA*eT*eT*dT*dG*dA*dT*dG*dA*d[5mC]*d[5mC]*dA*d[5mC]*eA*eT*eT*eG*e[5mC]) [compound 547329] |  | 24

Substance | % inhibition (Table 5 experiment) [%] | % inhibition (Table 6 experiment) [%]
547330 (antisense e[5mC]*eT*eT*eA*eT*dT*dT*dG*dA*dT*dG*dA*d[5mC]*d[5mC]*dA*e[5mC]*eA*eT*eT*eG) [compound 547330] |  | 60
547331 (antisense eA*eG*e[5mC]*eA*e[5mC]*dT*dT*dA*dT*dT*dT*dG*dA*dT*dG*eA*e[5mC]*e[5mC]*eA*e[5mC]) [compound 547331] |  | 47
547332 (antisense e[5mC]*eG*eA*eT*eG*dG*d[5mC]*dA*dA*dG*d[5mC]*dA*d[5mC]*dT*dT*eA*eT*eT*eT*eG) [compound 547332] |  | 44
547333 (antisense eT*eG*eT*e[5mC]*eT*d[5mC]*dG*dA*dT*dG*dG*d[5mC]*dA*dA*dG*e[5mC]*eA*e[5mC]*eT*eT) [compound 547333] |  | 76
547334 (antisense eA*eA*eT*eG*eT*d[5mC]*dT*d[5mC]*dG*dA*dT*dG*dG*d[5mC]*dA*eA*eG*e[5mC]*eA*e[5mC]) [compound 547334] |  | 74
547336 (antisense eT*eT*eT*eA*eT*dA*dA*dA*dT*dG*dT*d[5mC]*dT*d[5mC]*dG*eA*eT*eG*eG*e[5mC]) [compound 547336] |  | 81
547338 (antisense eT*e[5mC]*eA*eA*e[5mC]*dT*d[5mC]*d[5mC]*dT*dT*dT*dA*dT*dA*dA*eA*eT*eG*eT*e[5mC]) [compound 547338] |  | 71
547339 (antisense eT*eA*eT*e[5mC]*eA*dA*d[5mC]*dT*d[5mC]*d[5mC]*dT*dT*dT*dA*dT*eA*eA*eA*eT*eG) [compound 547339] |  | 42
547342 (antisense eA*eT*eT*eA*eA*dA*dA*dT*dT*dG*dA*d[5mC]*dT*d[5mC]*d[5mC]*eT*e[5mC]*eT*e[5mC]*eA) [compound 547342] |  | 66
547343 (antisense e[5mC]*eA*e[5mC]*eA*eT*dT*dA*dA*dA*dA*dT*dT*dG*dA*d[5mC]*eT*e[5mC]*e[5mC]*eT*e[5mC]) [compound 547343] |  | 78
547344 (antisense eG*eA*e[5mC]*eA*e[5mC]*dA*dT*dT*dA*dA*dA*dA*dT*dT*dG*eA*e[5mC]*eT*e[5mC]*e[5mC]) [compound 547344] |  | 80
547345 (antisense eA*eG*eA*e[5mC]*eA*d[5mC]*dA*dT*dT*dA*dA*dA*dA*dT*dT*eG*eA*e[5mC]*eT*e[5mC]) [compound 547345] |  | 80
547346 (antisense eA*e[5mC]*e[5mC]*eT*eT*dA*dG*dA*d[5mC]*dA*d[5mC]*dA*dT*dT*dA*eA*eA*eA*eT*eT) [compound 547346] |  | 57
547347 (antisense eA*e[5mC]*eT*eG*e[5mC]*dT*dA*dA*d[5mC]*d[5mC]*dT*dT*dA*dG*dA*e[5mC]*eA*e[5mC]*eA*eT) [compound 547347] |  | 82
547348 (antisense eA*e[5mC]*eA*e[5mC]*eT*dG*d[5mC]*dT*dA*dA*d[5mC]*d[5mC]*dT*dT*dA*eG*eA*e[5mC]*eA*e[5mC]) [compound 547348] |  | 83
547350 (antisense eG*eG*e[5mC]*eA*eT*dT*d[5mC]*dT*dT*d[5mC]*dA*dA*d[5mC]*dA*d[5mC]*eT*eG*e[5mC]*eT*eA) [compound 547350] |  | 96
547351 (antisense eT*eT*eT*eG*eG*d[5mC]*dA*dT*dT*d[5mC]*dT*dT*d[5mC]*dA*dA*e[5mC]*eA*e[5mC]*eT*eG) [compound 547351] |  | 92
547352 (antisense e[5mC]*e[5mC]*eG*eG*eT*dA*d[5mC]*dT*d[5mC]*dT*dG*d[5mC]*d[5mC]*dT*dT*eG*eT*eG*eA*eA) [compound 547352] |  | 94

Reference: patent publication US11840686B2, “Modulation of prekallikrein (PKK) expression” (Ionis Pharmaceuticals, Inc., priority 2013, dated 2023)
